From patent publication US4241066A, “14-Amino derivatives of morphine, methods of making them and analgesic compositions containing them” (priority 1977, dated 1980) come the findings set out here.

In assay [1] the test system is opiate receptor. As to the kind of experiment: in vivo agonist test in the rat, tail pressure as nociceptive stimulus (Green and Young). The note with it: administered subcutaneously. As for the experimental part: The compounds have been screened for agonist activity in the rat using tail pressure as the nociceptive stimulus as described by Green, H. F., and Young, P. A., Br. J. Pharmac. Chemother., 6, 572 (1951) and for morphine antagonist activity in rat using a tail flick test modified from the method described for mice by Ben Bassat et al (Arch Int. Pharmacoldyn. 122, 434 [1959]). The nociceptive stimulus in this test is a hot water bath (55° C.).

Assay [2] addresses T1, opiate receptor (Rattus norvegicus, UniProt P33535).
T1 construct: from tissue; host or cells: living rat (whole animal, subcutaneous dosing)
Format: in vivo. The note with it: tail flick, hot water bath 55° C., administered subcutaneously. As to the method:
Chemother., 6, 572 (1951) and for morphine antagonist activity in rat using a tail flick test modified from the method described for mice by Ben Bassat et al (Arch Int. Pharmacoldyn. 122, 434 [1959]). The nociceptive stimulus in this test is a hot water bath (55° C.).

T1 sequence (P33535 whole entry): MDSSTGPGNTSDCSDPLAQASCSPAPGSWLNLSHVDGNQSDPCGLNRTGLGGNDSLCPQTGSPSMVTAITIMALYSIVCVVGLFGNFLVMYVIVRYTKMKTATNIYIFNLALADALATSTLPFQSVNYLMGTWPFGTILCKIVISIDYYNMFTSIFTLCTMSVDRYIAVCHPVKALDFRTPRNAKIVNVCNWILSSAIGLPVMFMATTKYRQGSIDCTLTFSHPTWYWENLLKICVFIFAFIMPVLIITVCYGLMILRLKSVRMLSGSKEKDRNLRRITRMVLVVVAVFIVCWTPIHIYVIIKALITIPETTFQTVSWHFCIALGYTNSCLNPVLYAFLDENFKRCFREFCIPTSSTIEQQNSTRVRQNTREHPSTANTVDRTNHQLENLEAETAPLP

Consider `CCCCCC(=O)N[C@@]12C=CC(=O)[C@@H]3Oc4c(O)ccc5c4[C@@]31CCN(CC1CC1)[C@@H]2C5` [Example 54], for which the “ED50 (agonist, antinociceptive)” value in assay [1] stood at 0.0036 mg/kg.
With `O=C1C=C[C@@]2(NCC3CC3)[C@H]3Cc4ccc(O)c5c4[C@@]2(CCN3CC2CC2)[C@H]1O5` [Example 48], in assay [2], the “AD50 (morphine antagonist)” value stood at 0.0027 mg/kg.
Regarding `O=CN[C@@]12C=CC(=O)[C@@H]3Oc4c(O)ccc5c4[C@@]31CCN(CC1CC1)[C@@H]2C5` [Example 49], the “AD50 (morphine antagonist)” value in assay [2] was 0.132 mg/kg.
Regarding `CN1CC[C@]23c4c5ccc(O)c4O[C@H]2[C@@H](O)C=C[C@H]3[C@H]1C5` [morphine], in assay [1], the “ED50 (agonist, antinociceptive)” value was found to be 0.66 mg/kg.
Still for that read-out and setting: the result for `CCCCCCN[C@@]12C=CC(=O)[C@@H]3Oc4c(OC)ccc5c4[C@@]31CCN(CC1CC1)[C@@H]2C5` [Example 38] reads 1.92 mg/kg.
